Data set [1] relates to JC polyoma virus MAD-4 strain. Briefly: microbe, parasite or virus in culture. The data set is classed as cell-based. Conditions: Polyomavirus sp., COS-7, JCPyV, COS-7 cells. As to the method:
(§1) John Cunningham polyomavirus (JCPyV) strains MAD-1 and MAD-4 and BK polyomavirus (BKPyV) Gardner strain were obtained from ATCC. COS-7 cells were obtained from ATCC and maintained according to ATCC-supplied protocols.
(§2) Cytotoxicity assay was performed in a manner analogous to KSHV above. Evaluation of compounds against JCPyV virus was done in COS7 cells with the plasmid pMP508 to provide a standard curve for quantification.
Viral DNA was quantified (S1 Table) together with the plasmid pMP508 to provide a standard curve for absolute quantification. Secondary assays against JCV were also performed in COS7 cells by methods similar to those for BK virus to identify if verdinexor inhibited adsorption or entry of the virus.

The nature of data set [2]: Cytotoxicity in COS7 cells, concurrent with JCPyV assays. The data set is classed as cell-based. The note with it: African green monkey, COS-7 cells. As to the method: (§3) Cytotoxicity assays: Concurrent assessment of cytotoxicity was also performed for each study in the same cell line and with the same compound exposure.
For KSHV, cell viability was assessed with the CellTiter-Glo Luminescent Cell Viability Assay (Promega) using manufacturer’s protocol. Luminescence was quantified on a luminometer. Standard methods were used to calculate the 50% cytotoxic level (CC50).
as §2

Data set [3] has as its system diverse panel of viruses. Briefly: Broad antiviral screening, summary over all viruses. The data set is classed as cell-based. Conditions: across the panel of viruses; read-out: median EC50.
Protocol: Each assay was performed in triplicate in 2 independent assays. In some cases different assays were used for the secondary screen, as alternate experimental procedures are able to measure differential effects on the viral life cycle (ie. qPCR for genome replication, plaque reduction for replication, assembly and release, etc.).
Data set [4] deals with KSHV strain BCBL-1. Briefly: KSHV qPCR of viral DNA in PMA-induced BCBL-1 cells. The data set is classed as cell-based, Kaposi's sarcoma-associated herpesvirus. Conditions: Human gammaherpesvirus 8, BCBL1, KSHV. As to the method:
KSHV strain BCBL-1 was obtained as latently infected BCBL-1 cells through the NIH AIDS Research and Reference Reagent Program. BCBL-1 cells were maintained in growth medium consisting of RPMI 1640 supplemented with 10% FBS, penicillin, gentamicin, and l-glutamine.
To quantify virus, compound was diluted from 0.008–100μM and added to BCBL-1 cells induced to undergo a lytic infection by the addition of 100ng/ml phorbol 12-myristate 13-acetate (PMA) (Promega). After 7d, total DNA was prepared, and viral DNA was quantified by qPCR (see S1 Table for primer/probe sequences). Plasmid pMP218 containing a DNA sequence corresponding to nucleotides 14120–14182 (AF148805.2) was used to provide absolute quantification of viral DNA and EC50 [11].

Data set [5] can be described thus: Cytotoxicity in HEK293 cells (cell counter viability). The data set is classed as cell-based. Conditions: human, HPV-11 primary screen. As to the method:
as §3
(§4) HPV cytotoxicity assay was performed at the time of viral harvest by scoring cells in a BioRad Automatic Cell Counter for cell viability.

For data set [6] the following is noted: ferrets receiving 5mg/kg; cited from earlier work.
Data set [7] can be described thus: Cytotoxicity in BCBL-1 cells (CellTiter-Glo). The data set is classed as cell-based. Conditions: human. As to the method:
Cytotoxicity assays: Concurrent assessment of cytotoxicity was also performed for each study in the same cell line and with the same compound exposure. For KSHV, cell viability was assessed with the CellTiter-Glo Luminescent Cell Viability Assay (Promega) using manufacturer’s protocol. Luminescence was quantified on a luminometer. Standard methods were used to calculate the 50% cytotoxic level (CC50).

A short description of data set [8]: Cytotoxicity in HFF cells, concurrent with BKPyV assays. The data set is classed as cell-based. Conditions: human. As to the method: Cytotoxicity assays: Concurrent assessment of cytotoxicity was also performed for each study in the same cell line and with the same compound exposure. For KSHV, cell viability was assessed with the CellTiter-Glo Luminescent Cell Viability Assay (Promega) using manufacturer’s protocol. Luminescence was quantified on a luminometer. Standard methods were used to calculate the 50% cytotoxic level (CC50). Cytotoxicity assay was performed in a manner analogous to KSHV above.

Data set [9] is described as follows: Cytotoxicity in primary human keratinocytes (PHK). The note with it: HPV-18 secondary screen, PHKs. The data set is classed as cell-based. As to the method:
as §3, §4
For secondary assays, the amplification of HPV-18 DNA was determined in an organotypic squamous epithelial raft culture of PHKs. Whole genomic HPV-18 plasmids were generated in plasmid-transfected PHKs and developed into organotypic cultures as described. Based on the results of a 3-day toxicity assay, concentrations of test compound were added to a subset of raft cultures from day 6 through day 13 when the cultures were harvested. Similarly treated normal PHK raft cultures were also prepared to assess toxicity of uninfected tissue. One set of cultures were fixed in 10% buffered formalin, paraffin embedded and sectioned for in situ assay. Sections were stained with hematoxylin and eosin. Total DNA harvest from unfixed raft cultures was used to determine the HPV-18 copy number/per cell by qPCR. Inhibition was expressed as % of viral DNA copies relative to the untreated cultures.

The target of data set [10] is histamine H1 receptor (Homo sapiens, UniProt P35367). Briefly: Histamine H1 receptor functional activity assay, antagonist. The data set is classed as biochemical. The note with it: Study No. KS-1017, read-out: IC50 (50% inhibitory concentration).
Sequence of histamine H1 receptor (P35367 whole entry, species assumed): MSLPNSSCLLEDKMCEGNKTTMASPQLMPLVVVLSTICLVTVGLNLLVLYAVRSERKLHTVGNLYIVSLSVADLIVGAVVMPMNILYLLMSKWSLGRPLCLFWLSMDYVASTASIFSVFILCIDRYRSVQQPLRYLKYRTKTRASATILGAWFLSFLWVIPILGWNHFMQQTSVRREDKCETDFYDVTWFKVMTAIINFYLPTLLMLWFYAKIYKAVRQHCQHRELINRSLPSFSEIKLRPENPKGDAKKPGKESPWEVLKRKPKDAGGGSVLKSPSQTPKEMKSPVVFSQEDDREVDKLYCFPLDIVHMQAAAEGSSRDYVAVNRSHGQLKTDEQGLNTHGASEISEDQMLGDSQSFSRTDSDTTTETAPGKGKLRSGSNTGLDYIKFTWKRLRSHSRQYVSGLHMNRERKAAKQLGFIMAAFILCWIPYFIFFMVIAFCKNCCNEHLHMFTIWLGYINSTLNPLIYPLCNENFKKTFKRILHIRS
Data set [11] has as its system BK polyomavirus (BKPyV) Gardner strain. Briefly: BKPyV qPCR genome copy assay in HFF cells. The data set is classed as cell-based. Conditions: Betapolyomavirus hominis. As to the method: as §1
Primary assays for BKPyV were performed in 384-well plates containing monolayers of HFF cells. Compound dilutions ranging from 0.0032–100μM were prepared in plates containing cells which were subsequently infected at an MOI of 0.001. After a 7d incubation, total DNA was prepared using Extracta and genome copy number was quantified by qPCR using the primers and probe listed in S1 Table [18]. Plasmid pMP526 served as the DNA standard for quantification purposes. Compounds were confirmed in a similar assay in 96-well plates according to established laboratory protocols with the compounds added 1h […] to identify compounds that inhibit early stages of replication including adsorption and entry. Genome copy number was determined by methods described above.

In data set [12] the test system is HPV-11. Briefly: HPV-11 transient origin-plasmid replication assay in HEK293 cells (qPCR). The data set is classed as cell-based, human papillomavirus. Conditions: Human papillomavirus, HPV-11, primary screen. As to the method:
HPV-11 and -18 were tested in HEK293 cells and primary human keratinocytes (PHK), respectively. PHKs were isolated from neonatal foreskins following circumcision according to IRB-approved protocols at UAB. They were grown in keratinocyte serum-free medium (Life Technologies) with mitomycin C-treated J2 feeder cells (Swiss 3T3 J2 fibroblasts; Elaine Fuchs, Rockefeller University). HEK 293 cells were maintained under standard conditions.
Quantification of virus was determined via transient replication of an HPV-11 replication origin-containing plasmid in HEK293 cells co-transfected with an HPV-11 replicative DNA helicase E1 and origin binding E2 protein [20]. 293 cells were cultured with test compounds added 4hr post-transfection for 2 days. Low molecular weight DNA was isolated, digested with Dpn1 and exonuclease III to eliminate unreplicated DNA. The Dpn1-resistant DNA was then subjected to qPCR analyses amplifying a small portion of the replication origin [20]. In a negative control, the E1 expression vector was omitted or cultures were treated with the inhibitor cidofovir.

For `O=C(C=Cn1cnc(-c2cc(C(F)(F)F)cc(C(F)(F)F)c2)n1)NNc1ccccn1` (stereo in doubt) [verdinexor, (E)-3-[3-[3,5-bis(trifluoromethyl)phenyl]-1,2,4-triazol-1-yl]-N'-pyridin-2-ylprop-2-enehydrazide], the concentration giving a half-maximal response (EC50) in data set [1] (primary screen) was 7.45 µM; in [1] (secondary screen), 3.14 µM; in [3], 2 µM; in data set [4] (primary screen), less than 0.8 µM; in data set [4] (secondary screen), 0.27 µM; in data set [11] (primary screen), 7.62 µM. Moreover, the half-maximal effective concentration (EC50) turned out to be 2.29 µM in data set [11] (secondary screen, compound added 1h post-infection) and 1.65 µM in data set [12]. The CC50 came out at 10 µM in data set [2] (JCPyV primary screen); 73.3 µM in data set [2] (JCPyV secondary screen); 89.5 µM in [5]; 2.76 µM in data set [7] (KSHV primary screen); 1.4 µM in [7] (KSHV secondary screen); 10 µM in data set [8] (BKPyV primary screen). For the same molecule, the results for the CC50 in data set [8] (BKPyV secondary screen) and in data set [9] were 9.38 µM and 8.3 µM, respectively. Further, in data set [6], the half life is 2 h. In addition, in data set [10], the IC50 is greater than 10 µM.

The record behind these values is publication PMC6192554, “In vitro toxicity and efficacy of verdinexor, an exportin 1 inhibitor, on opportunistic viruses affecting immunocompromised individuals” (PLoS ONE, 2018).
